According to patent US8895745B2, “Bicyclic heterocyclic compounds as FGFR inhibitors” (Astex Therapeutics Limited, priority 2006, dated 2014):
Structures can show the parent of a compound that is named as a salt.

These molecules were tested on LP-1 cell line (assay: Cell-based pERK ELISA method, LP-1 cells). Details: Homo sapiens, LP-1, read-out: IC50 less than 1 μM or at least 50% inhibition at a concentration of 1 μM, LP-1 pERK ELISA.

| Compound | IC50 [µM] |
| --- | --- |
| CCNC(=O)Nc1cccc(-c2cnc3cc(-c4ccc(OC)nc4)ccn23)c1 [Example 43, 1-Ethyl-3-{3-[7-(6-methoxy-pyridin-3-yl)-imidazo[1,2-a]pyridin-3-yl]-phenyl}-urea] | < 1 |
| CCNC(=O)Nc1cccc(-c2cnc3cc(-c4ccnc(OC)c4)ccn23)c1 [Example 45, 1-Ethyl-3-{3-[7-(2-methoxy-pyridin-4-yl)-imidazo[1,2-a]pyridin-3-yl]-phenyl}-urea] | < 1 |
| CCNC(=O)Nc1cccc(-c2cnc3cc(-c4ccc(N5CCOCC5)nc4)ccn23)c1 [Example 49, 1-Ethyl-3-{3-[7-(6-morpholin-4-yl-pyridin-3-yl)-imidazo[1,2-a]pyridin-3-yl]-phenyl}-urea formate salt] | < 1 |
| CCNC(=O)Nc1cccc(-c2cnc3cc(-c4ccc(CCN5CCOCC5)cc4)ccn23)c1 [Example 56, 1-Ethyl-3-(3-{7-[4-(2-morpholin-4-yl-ethyl)-phenyl]-imidazo[1,2-a]pyridin-3-yl}-phenyl)-urea hydro-chloride salt] | < 1 |
| CCNC(=O)Nc1cccc(-c2cnc3cc(-c4ccc(N5CCNCC5)cc4)ccn23)c1 [Example 57, 1-Ethyl-3-{3-[7-(4-piperazin-1-yl-phenyl)-imidazo[1,2-a]pyridin-3-yl]-phenyl}-urea hydro-chloride salt] | < 1 |
| CCNC(=O)Nc1cccc(-c2cnc3cc(-c4ccc(N5CCCCC5)nc4)ccn23)c1 [Example 58, 1-Ethyl-3-{3-[7-(3,4,5,6-tetrahydro-2H-[1,2′]bipyridinyl-5′-yl)-imidazo[1,2-a]pyridin-3-yl]-phenyl}-urea hydro-chloride salt] | < 1 |
| CC(=O)Nc1cccc(-c2cnc3cc(-c4ccnc(N5CCN(C)CC5)c4)ccn23)c1 [Example 62, N-(3-{7-[2-(4-Methyl-piperazin-1-yl)-pyridin-4-yl]-imidazo[1,2-a]pyridin-3-yl}-phenyl)-acetamide] | < 1 |
| CCC(=O)Nc1cccc(-c2cnc3cc(-c4ccc(F)cc4)ccn23)c1 [Example 64, N-{3-[7-(4-Fluoro-phenyl)-imidazo[1,2-a]pyridin-3-yl]-phenyl}-propionamide] | < 1 |
| CC(=O)Nc1cccc(-c2cnc3cc(-c4ccc(OCC(O)CO)cc4)ccn23)c1 (centres unmarked) [Example 65, N-(3-{7-[4-(2,3-Dihydroxy-propoxy)-phenyl]-imidazo[1,2-a]pyridin-3-yl}-phenyl)-acetamide] | < 1 |
| CCCC(=O)Nc1cccc(-c2cnc3cc(-c4ccc(F)cc4)ccn23)c1 [Example 66, N-{3-[7-(4-Fluoro-phenyl)-imidazo[1,2-a]pyridin-3-yl]-phenyl}-butyramide] | < 1 |
| NCC(=O)Nc1cccc(-c2cnc3cc(-c4ccc(F)cc4)ccn23)c1 [Example 67, 2-Amino-N-{3-[7-(4-fluoro-phenyl)-imidazo[1,2-a]pyridin-3-yl]-phenyl}-acetamide formate salt] | < 1 |
| COc1cc(NC(C)=O)cc(-c2cnc3cc(-c4cccc(CN5CCOCC5)c4)ccn23)c1 [Example 78, N-{3-Methoxy-5-[7-(3-morpholin-4-ylmethyl-phenyl)-imidazo[1,2-a]pyridin-3-yl]-phenyl}-acetamide] | < 1 |
| CCNC(=O)Nc1cccc(-c2cnc3cc(-c4cccc(C(=O)N5CCN(C)CC5)c4)ccn23)c1 [Example 79, 1-Ethyl-3-(3-{7-[3-(4-methyl-piperazine-1-carbonyl)-phenyl]-imidazo[1,2-a]pyridin-3-yl}-phenyl)-urea] | < 1 |
| CCNC(=O)Nc1cccc(-c2cnc3cc(-c4ccc(N(C)C)nc4)ccn23)c1 [Example 80, 1-{3-[7-(6-Dimethylamino-pyridin-3-yl)-imidazo[1,2-a]pyridin-3-yl]-phenyl}-3-ethyl-urea formate salt] | < 1 |
| CCNC(=O)Nc1cccc(-c2cnc3cc(-c4ccc(C(=O)N5CCN(C)CC5)cc4)ccn23)c1 [Example 81, 1-Ethyl-3-(3-{7-[4-(4-methyl-piperazine-1-carbonyl)-phenyl]-imidazo[1,2-a]pyridin-3-yl}-phenyl)-urea] | < 1 |
| CCNC(=O)Nc1cccc(-c2cnc3cc(-c4ccc(CN5CCC5)cc4)ccn23)c1 [Example 82, 1-{3-[7-(4-Azetidin-1-ylmethyl-phenyl)-imidazo[1,2-a]pyridin-3-yl]-phenyl}-3-ethyl-urea] | < 1 |
| CCNC(=O)Nc1cccc(-c2cnc3cc(-c4cccc(OCCOC)c4)ccn23)c1 [Example 83, 1-Ethyl-3-(3-{7-[3-(2-methoxy-ethoxy)-phenyl]-imidazo[1,2-a]pyridin-3-yl}-phenyl)-urea] | < 1 |
| CCNC(=O)Nc1cccc(-c2cnc3cc(-c4cnn(C)c4)ccn23)c1 [Example 94, 1-Ethyl-3-{3-[7-(1-methyl-1H-pyrazol-4-yl)-imidazo[1,2-a]pyridin-3-yl]-phenyl}-urea] | < 1 |
| CCNC(=O)Nc1cccc(-c2cnc3cc(-c4ccc(=O)n(C)c4)ccn23)c1 [Example 95, 1-Ethyl-3-{3-[7-(1-methyl-6-oxo-1,6-dihydro-pyridin-3-yl)-imidazo[1,2-a]pyridin-3-yl]-phenyl}-urea] | < 1 |

| Compound | IC50 [µM] |
| --- | --- |
| CC(=O)Nc1cccc(-c2cnc3ccc(-c4csc5ccccc45)cn23)c1 [Example 103, N-[3-(6-Benzo[b]thiophen-3-yl-imidazo[1,2-a]pyridin-3-yl)-phenyl]-acetamide] | < 1 |
| CC(=O)Nc1cccc(-c2cnc3ccc(-c4ccoc4)cn23)c1 [Example 104, N-[3-(6-Furan-3-yl-imidazo[1,2-a]pyridin-3-yl)-phenyl]-acetamide] | < 1 |
| O=C(NCC(F)(F)F)Nc1cccc(-c2cnc3cc(N4CCOCC4)ccn23)c1 [Example 108, 1-[3-(7-Morpholin-4-yl-imidazo[1,2-a]pyridin-3-yl)-phenyl]-3-(2,2,2-trifluoro-ethyl)-urea hydrochloride salt] | < 1 |
| CCNC(=O)Nc1cccc(-c2cnc3cc(-c4ccc(NCCN5CCOCC5)nc4)ccn23)c1 [Example 109, 1-Ethyl-3-(3-{7-[6-(2-morpholin-4-yl-ethylamino)-pyridin-3-yl]-imidazo[1,2-a]pyridin-3-yl}-phenyl)-urea hydro-chloride salt] | < 1 |
| CCNC(=O)Nc1cccc(-c2cnn3cc(-c4ccc(F)cc4)cnc23)c1 [Example 111, 1-Ethyl-3-{3-[6-(4-fluoro-phenyl)-pyrazolo[1,5-a]pyrimidin-3-yl]-phenyl}-urea] | < 1 |
| Nc1ccc(-c2cnc3c(-c4cccc(NC(=O)NCC(F)(F)F)c4)cnn3c2)cn1 [Example 113, 1-{3-[6-(6-Amino-pyridin-3-yl)-pyrazolo[1,5-a]pyrimidin-3-yl]-phenyl}-3-(2,2,2-trifluoro-ethyl)-urea hydrochloride salt] | < 1 |
| CCNC(=O)Nc1cccc(-c2cnn3cc(-c4ccc(N)nc4)cnc23)c1 [Example 114, 1-{3-[6-(6-Amino-pyridin-3-yl)-pyrazolo[1,5-a]pyrimidin-3-yl]-phenyl}-3-ethyl-urea hydrochloride salt] | < 1 |
| CCNC(=O)Nc1cccc(-c2cnc3cc(-c4ccsc4)ccn23)c1 [Example 115, 1-Ethyl-3-[3-(7-thiophen-3-yl-imidazo[1,2-a]pyridine-3-yl)-phenyl]-urea formate salt] | < 1 |
| O=C(NCC(F)(F)F)Nc1cccc(-c2cnn3cc(-c4ccc(F)cc4)cnc23)c1 [Example 123, 1-{3-[6-(4-Fluoro-phenyl)-pyrazolo[1,5-a]pyrimidin-3-yl]-phenyl}-3-(2,2,2-trifluoro-ethyl)-urea] | < 1 |
| Cn1cc(-c2cnc3c(-c4cccc(NC(=O)NCC(F)(F)F)c4)cnn3c2)cn1 [Example 127, 1-{3-[6-(1-Methyl-1H-pyrazol-4-yl)-pyrazolo[1,5-a]pyrimidin-3-yl]-phenyl}-3-(2,2,2-trifluoro-ethyl)-urea] | < 1 |
| Cn1cc(-c2ccn3c(-c4cccc(NC(=O)NCC(F)(F)F)c4)cnc3c2)cn1 [Example 128, 1-{3-[7-(1-Methyl-1H-pyrazol-4-yl)-imidazo[1,2-a]pyridin-3-yl]-phenyl}-3-(2,2,2-trifluoro-ethyl)-urea formate] | < 1 |
| O=C(NCCF)Nc1cccc(-c2cnc3cc(-c4ccc(F)cc4)ccn23)c1 [Example 134, 1-(2-Fluoro-ethyl)-3-{3-[7-(4-fluoro-phenyl)-imidazo[1,2-a]pyridin-3-yl]-phenyl}-urea Hydrochloride] | < 1 |
| CCNC(=O)Nc1cccc(-c2cnn3cc(-c4cnn(C)c4)cnc23)c1 [Example 135, 1-Ethyl-3-{3-[6-(1-methyl-1H-pyrazol-4-yl)-pyrazolo[1,5-a]pyrimidin-3-yl]-phenyl}-urea] | < 1 |
| O=C(NCCF)Nc1cccc(-c2cnn3cc(-c4ccc(F)cc4)cnc23)c1 [Example 140, 1-(2-Fluoro-ethyl)-3-{3-[6-(4-fluoro-phenyl)-pyrazolo[1,5-a]pyrimidin-3-yl]-phenyl}-urea] | < 1 |
| O=C(NCC(F)(F)F)Nc1cccc(-c2cnc3cc(-c4ccc5c(c4)OCO5)ccn23)c1 [Example 141, Hydrochloride] | < 1 |
| COc1cc(-c2ccn3c(-c4cccc(NC(=O)NCC(F)(F)F)c4)cnc3c2)ccc1F [Example 142, 1-{3-[7-(4-Fluoro-3-methoxy-phenyl)-imidazo[1,2-a]pyridin-3-yl]-phenyl}-3-(2,2,2-trifluoro-ethyl)-urea Hydrochloride] | < 1 |
| O=C(NCC(F)(F)F)Nc1cccc(-c2cnc3cc(-c4cccc(F)c4)ccn23)c1 [Example 143, 1-{3-[7-(3-Fluoro-phenyl)-imidazo[1,2-a]pyridin-3-yl]-phenyl}-3-(2,2,2-trifluoro-ethyl)-urea Hydrochloride] | < 1 |
| O=C(NCC(F)(F)F)Nc1cccc(-c2cnc3cc(-c4ccccc4)ccn23)c1 [Example 149, 1-[3-(7-Phenyl-imidazo[1,2-a]pyridin-3-yl)-phenyl]-3-(2,2,2-trifluoro-ethyl)-urea Hydrochloride] | < 1 |

Same assay, conditions: Homo sapiens, LP-1, read-out: LP-1 pERK ELISA (μM)

| Compound | IC50 [µM] |
| --- | --- |
| O=C(NCC(F)(F)F)Nc1cccc(-c2cnc3cc(-c4ccc(F)cc4)ccn23)c1 [Example 59, 1-{3-[7-(4-fluoro-phenyl)-imidazo[1,2-a]pyridin-3-yl]-phenyl}-3-(2,2,2-trifluoro-ethyl)-urea] | 0.0021 |
